pIC50: −log10 of the molar value. In brackets after ≈: the same amount, converted by molar mass. Where two headings read alike, the source gives them in different places. Numbered stars: 1 amine (or outer) side, 2 acyl side, 3 side chain; on linkers, the order of the positions; unused ones are H or OH. Bridge positions count the residues as written; N and C are the ends. Square brackets hold non-standard residues; d marks the D form. Peptide text beside a SMILES is read from it. * marks the point of attachment. Lys(Me,(CH2)4NMe(CH2)5CO) = CN(CCCCCC(=O)[*:3])CCCCN(C)CCCC[C@H](N[*:1])C(=O)[*:2]; X2 = O=C(Cc1ccc(-c2ccc(CC(=O)[*:2])cc2)cc1)[*:1]; Trp(7-Me) = Cc1cccc2c(C[C@H](N)C(=O)O)c[nH]c12; Sebacoyl = O=C(CCCCCCCCC(=O)[*:2])[*:1]; NH(CH2)9CO = O=C(CCCCCCCCCN[*:1])[*:2]; 2Nal = N[C@@H](Cc1ccc2ccccc2c1)C(=O)O; C12 diacid = O=C(O)CCCCCCCCCCC(=O)*; X1 = O=C(CCCCCCCCCCCCCN[*:1])[*:2]; 3Pal = N[C@@H](Cc1cccnc1)C(=O)O; AEEEA = NCCOCCOCCOCC(=O)O; Aun = NCCCCCCCCCCC(=O)O; Thp = NC1(C(=O)O)CCOCC1; Me2NCH2CH2 = CN(C)CC*; Aib = CC(C)(N)C(=O)O; Aoc = NCCCCCCCC(=O)O; Sar = CNCC(=O)O
Experiments:
[1] = Solubility of peptide compounds in buffer formulations (Table 5); type: physicochemical; conditions: target 1 mg/ml
How it was run: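 Peptide solids, dried from DMSO stock, were taken up at 1 mg/mL in 50 mM HCl pH 1.2, or 50 mM phosphate pH 6.5 or pH 7.4. After 2 h gentle agitation and filtration (0.45 μm), solubility was determined by UHPLC-UV peak area against a DMSO standard of known concentration.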

[2] = Protease stability in simulated intestinal fluids (FaSSIF) (Table 7); type: in vitro ADME; conditions: fassif with pancreatin, 37° C.; for remaining at 1 h, 1 µM: 60 min, read-out: Remaining percentage of peptide compound, FaSSIF 60 (min); for remaining at 2 h, 1 µM: 120 min, read-out: Remaining percentage of peptide compound, FaSSIF 120 (min); for remaining at 4 h, 1 µM: 240 min, read-out: Remaining percentage of peptide compound, FaSSIF 240 (min)
How it was run: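 1 μM peptide incubated at 37° C in simulated fluid (pancreatin-SIF prepared from pancreatin in SIF concentrate). Samples quenched with acidified ethanol at 0, 60, 120 and 240 min and analysed by LC-MS/MS. Percentage remaining from peak area relative to T0 (100%).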

[3] = Protease stability in simulated gastric fluids (FaSSGF) (Table 7); type: in vitro ADME; conditions: fassgf with pepsin, 60 min, 37° C., read-out: Remaining percentage of peptide compound, FaSSGF 60 (min)
How it was run: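 Peptides at 1 μM final were incubated at 37 °C in simulated gastric fluid with pepsin (320 mg per 100 mL SGF concentrate). Samples were quenched with ethanol (0.1% HCOOH) at 0, 60, 120 and 240 min and analysed by LC-MS/MS. Percent remaining is the peak area relative to T0 (100%).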

human IL-23R = molecular target: T1, human IL-23R (Homo sapiens, UniProt Q5VWK5); assay: Inhibition of IL-23 binding to IL-23R as measured by ELISA (Table 8); conditions: human IL23 coated 1 μg/ml; human IL-23R-Fc 0.1 μg/ml; 60 min; read-out: Human ELISA IL23/IL23R IC50
T1 sequence (Q5VWK5 24-353 limits assumed): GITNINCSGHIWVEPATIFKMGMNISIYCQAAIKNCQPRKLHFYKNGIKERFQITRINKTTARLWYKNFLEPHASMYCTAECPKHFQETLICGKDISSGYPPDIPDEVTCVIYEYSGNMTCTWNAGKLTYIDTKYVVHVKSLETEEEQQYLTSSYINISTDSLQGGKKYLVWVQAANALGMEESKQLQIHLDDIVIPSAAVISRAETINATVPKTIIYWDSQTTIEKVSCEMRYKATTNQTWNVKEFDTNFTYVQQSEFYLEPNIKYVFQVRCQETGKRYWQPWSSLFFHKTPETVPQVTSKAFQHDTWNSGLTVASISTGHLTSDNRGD
Procedure: Antagonism of compounds for human interleukin-23 receptor inhibitors, was determined by an ELISA assay.
A 384-well plate was coated with 50 μl/well of human IL23 at a final concentration of 1 μg/ml and incubated overnight at 4° C. The wells were washed 3 times with 80 μl wash buffer and blocked with 80 μl blocking buffer for 60 minutes at room temperature and washed again. 20 μl of serially diluted test peptides was added to each well and subsequently 20 μl of recombinant human IL-23R-Fc chimera at final concentration of 0.1 μg/ml. The plate was incubated for 60 minutes at room temperature. After the wells were washed, bound IL23R-Fc was detected with goat anti-hu-IgG1-HRP antibody. Signals were visualized with QUANTABLU fluorogenic peroxidase substrate.

[4] = Buffer pH 1.1 (head; method: 50 mM HCl pH 1.2), 2 h agitation, read-out: Solubility, Buffer pH 1.1
[5] = aqueous buffer, 50 mM phosphate buffer pH 6.5, 2 h agitation, read-out: Solubility, Buffer pH 6.5
[6] = aqueous buffer, 50 mM phosphate buffer pH 7.4, 2 h agitation, read-out: Solubility, Buffer pH 7.4

solubility at 2 h [1, 4] [µg/mL]	solubility at 2 h [1, 5] [µg/mL]	solubility at 2 h [1, 6] [µg/mL]	remaining at 1 h, 1 µM [2] [%]	remaining at 2 h, 1 µM [2] [%]	remaining at 4 h, 1 µM [2] [%]	remaining at 1 h, 1 µM [3] [%]	pIC50 (human IL-23R)	SMILES
≥ 1160	260 (≈ 167 µM)	80 (≈ 51.3 µM)	74	76	74	59	9.03	Cc1cccc2c(C[C@@H]3NC(=O)CCCCCCCNC(=O)CC[C@@H](C(=O)N[C@@H](CC(N)=O)C(=O)N[C@@H](Cc4cccnc4)C(=O)N(C)CC(N)=O)NC(=O)C(C)(C)NC(=O)[C@H](Cc4ccc5ccccc5c4)NC(=O)[C@H](Cc4ccc(OCCN(C)C)cc4)NC(=O)C4(CCOCC4)NC(=O)[C@H](CC(C)C)NC3=O)c[nH]c12 [compound 9] ([Aoc][Trp(7-Me)]L[Thp]Y(Me2NCH2CH2)[2Nal][Aib]EN[3Pal][Sar]-NH2; lactam N-8)
≥ 920	< 10	< 10	96	90	90	77	9.52	Cc1cccc2c(C[C@@H]3NC(=O)CCCCCCCCCCCCCNC(=O)CC[C@@H](C(=O)N[C@@H](CC(N)=O)C(=O)N[C@@H](Cc4cccnc4)C(=O)N(C)CC(N)=O)NC(=O)C(C)(C)NC(=O)[C@H](Cc4ccc5ccccc5c4)NC(=O)[C@H](Cc4ccc(OCCN(C)C)cc4)NC(=O)C4(CCOCC4)NC(=O)[C@H](CCC(N)=O)NC3=O)c[nH]c12 [compound 1] ([X1][Trp(7-Me)]Q[Thp]Y(Me2NCH2CH2)[2Nal][Aib]EN[3Pal][Sar]-NH2; lactam N-8)
20 (≈ 12.6 µM)	< 10	< 10	79	79	72	7	8.77	Cc1cccc2c(C[C@@H]3NC(=O)CCCCCCCCCNC(=O)CC[C@@H](C(=O)N[C@@H](CC(N)=O)C(=O)N[C@@H](Cc4cccnc4)C(=O)N(C)CC(N)=O)NC(=O)C(C)(C)NC(=O)[C@H](Cc4ccc5ccccc5c4)NC(=O)[C@H](Cc4ccc(OCCN(C)C)cc4)NC(=O)C4(CCOCC4)NC(=O)[C@H](CC(C)C)NC3=O)c[nH]c12 [compound 8] ([NH(CH2)9CO][Trp(7-Me)]L[Thp]Y(Me2NCH2CH2)[2Nal][Aib]EN[3Pal][Sar]-NH2; lactam N-8)
≥ 940	330 (≈ 204 µM)	500 (≈ 309 µM)	74	73	69	98	9.21	Cc1cccc2c(C[C@@H]3NC(=O)CCCCCCCCC(=O)NCCCC[C@@H](C(=O)N[C@@H](CC(N)=O)C(=O)N[C@@H](Cc4cccnc4)C(=O)N(C)CC(N)=O)NC(=O)C(C)(C)NC(=O)[C@H](Cc4ccc5ccccc5c4)NC(=O)[C@H](Cc4ccc(OCCN(C)C)cc4)NC(=O)C4(CCOCC4)NC(=O)[C@H](CCC(N)=O)NC3=O)c[nH]c12 [compound 11] ([Trp(7-Me)]Q[Thp]Y(Me2NCH2CH2)[2Nal][Aib]KN[3Pal][Sar]-NH2; linker N-7 via Sebacoyl)
≥ 1190	≥ 1180	≥ 1230	90	89	88	90	9.39	CC(=O)NCCCC[C@@H]1NC(=O)[C@H](Cc2c[nH]c3c(C)cccc23)NC(=O)[C@@H](NC(C)=O)CCCCN(C)CCCCN(C)CCCC[C@@H](C(=O)N[C@@H](CC(N)=O)C(=O)N[C@@H](Cc2cccnc2)C(=O)N(C)CC(N)=O)NC(=O)C(C)(C)NC(=O)[C@@H](Cc2ccc3ccccc3c2)NC(=O)[C@H](Cc2ccc(OCCN(C)C)cc2)NC(=O)C2(CCOCC2)NC1=O [compound 13]
≥ 890	240 (≈ 146 µM)	70 (≈ 42.6 µM)	79	78	77	88	9.26	Cc1cccc2c(C[C@@H]3NC(=O)CCCCCCCCCCC(=O)NCCCC[C@@H](C(=O)N[C@@H](CC(N)=O)C(=O)N[C@@H](Cc4cccnc4)C(=O)N(C)CC(N)=O)NC(=O)C(C)(C)NC(=O)[C@H](Cc4ccc5ccccc5c4)NC(=O)[C@H](Cc4ccc(OCCN(C)C)cc4)NC(=O)C4(CCOCC4)NC(=O)[C@H](CCC(N)=O)NC3=O)c[nH]c12 [compound 10] ([Trp(7-Me)]Q[Thp]Y(Me2NCH2CH2)[2Nal][Aib]KN[3Pal][Sar]-NH2; linker N-7 via C12 diacid)
≥ 1060	≥ 980	≥ 990	95	88	85	100	9.17	CC(=O)NCCCC[C@@H]1NC(=O)[C@H](Cc2c[nH]c3c(C)cccc23)NC(=O)CCCCCN(C)CCCCN(C)CCCC[C@@H](C(=O)N[C@@H](CC(N)=O)C(=O)N[C@@H](Cc2cccnc2)C(=O)N(C)CC(N)=O)NC(=O)C(C)(C)NC(=O)[C@H](Cc2ccc3ccccc3c2)NC(=O)[C@H](Cc2ccc(OCCN(C)C)cc2)NC(=O)C2(CCOCC2)NC1=O [compound 18] ([Trp(7-Me)]K(Ac)[Thp]Y(Me2NCH2CH2)[2Nal][Aib][Lys(Me,(CH2)4NMe(CH2)5CO)]N[3Pal][Sar]-NH2; lactam N-7)
≥ 990	≥ 920	≥ 920	74	63	43	87	9.20	Cc1cccc2c(C[C@@H]3NC(=O)Cc4ccc(cc4)-c4ccc(cc4)CC(=O)NCCCC[C@@H](C(=O)N[C@@H](CC(N)=O)C(=O)N[C@@H](Cc4cccnc4)C(=O)N(C)CC(N)=O)NC(=O)C(C)(C)NC(=O)[C@H](Cc4ccc5ccccc5c4)NC(=O)[C@H](Cc4ccc(OCCN(C)C)cc4)NC(=O)C4(CCOCC4)NC(=O)[C@H](CCC(N)=O)NC3=O)c[nH]c12 [compound 15] ([Trp(7-Me)]Q[Thp]Y(Me2NCH2CH2)[2Nal][Aib]KN[3Pal][Sar]-NH2; linker N-7 via X2)
≥ 1200	≥ 1280	≥ 1270	94	90	88	100	9.34	Cc1cccc2c(C[C@@H]3NC(=O)COCCOCCOCCNC(=O)CC[C@@H](C(=O)N[C@@H](CC(N)=O)C(=O)N[C@@H](Cc4cccnc4)C(=O)N(C)CC(N)=O)NC(=O)C(C)(C)NC(=O)[C@H](Cc4ccc5ccccc5c4)NC(=O)[C@H](Cc4ccc(OCCN(C)C)cc4)NC(=O)C4(CCOCC4)NC(=O)[C@H](CCC(N)=O)NC3=O)c[nH]c12 [compound 14] ([AEEEA][Trp(7-Me)]Q[Thp]Y(Me2NCH2CH2)[2Nal][Aib]EN[3Pal][Sar]-NH2; lactam N-8)
20 (≈ 12.5 µM)	< 10	< 10	80	81	82	6	8.62	Cc1cccc2c(C[C@@H]3NC(=O)CCCCCCCCCCNC(=O)CC[C@@H](C(=O)N[C@@H](CC(N)=O)C(=O)N[C@@H](Cc4cccnc4)C(=O)N(C)CC(N)=O)NC(=O)C(C)(C)NC(=O)[C@H](Cc4ccc5ccccc5c4)NC(=O)[C@H](Cc4ccc(OCCN(C)C)cc4)NC(=O)C4(CCOCC4)NC(=O)[C@H](CC(C)C)NC3=O)c[nH]c12 [compound 7] ([Aun][Trp(7-Me)]L[Thp]Y(Me2NCH2CH2)[2Nal][Aib]EN[3Pal][Sar]-NH2; lactam N-8)

Reference: patent US20260297129A1, “PEPTIDES AS SELECTIVE IL-23 RECEPTOR INHIBITORS” (SANOFI, priority 2023, published 2026)
